Molecular target: T1, full length G2019 human LRRK2 (Homo sapiens, UniProt Q5S007, R50H)
T1 construct: made in house; host or cells: HEK293 6E cells transduced with BacMam virus (virus generated in Sf9 cells)
Assay: Full length G2019 human LRRK2 inhibition mass spectrometry assay
Assay type: biochemical
Settings: LRRKtide to phospho-LRRKtide conversion, RapidFire MS, 2 mM ATP
Outline: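 Purified full-length Flag-tagged G2019 LRRK2, ~25 nM, with 25 μM LRRKtide and 2 mM ATP in 50 mM Hepes pH 7.2, 10 mM MgCl2, 150 mM NaCl, 1 h at room temperature. Quenched with formic acid; phospho- and unphosphorylated LRRKtide measured by RapidFire MS. pIC50 from 4-parameter fit of % conversion, 11 points, top 100 μM.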

T1 sequence (Q5S007 with tags, fused parts or gaps R50H): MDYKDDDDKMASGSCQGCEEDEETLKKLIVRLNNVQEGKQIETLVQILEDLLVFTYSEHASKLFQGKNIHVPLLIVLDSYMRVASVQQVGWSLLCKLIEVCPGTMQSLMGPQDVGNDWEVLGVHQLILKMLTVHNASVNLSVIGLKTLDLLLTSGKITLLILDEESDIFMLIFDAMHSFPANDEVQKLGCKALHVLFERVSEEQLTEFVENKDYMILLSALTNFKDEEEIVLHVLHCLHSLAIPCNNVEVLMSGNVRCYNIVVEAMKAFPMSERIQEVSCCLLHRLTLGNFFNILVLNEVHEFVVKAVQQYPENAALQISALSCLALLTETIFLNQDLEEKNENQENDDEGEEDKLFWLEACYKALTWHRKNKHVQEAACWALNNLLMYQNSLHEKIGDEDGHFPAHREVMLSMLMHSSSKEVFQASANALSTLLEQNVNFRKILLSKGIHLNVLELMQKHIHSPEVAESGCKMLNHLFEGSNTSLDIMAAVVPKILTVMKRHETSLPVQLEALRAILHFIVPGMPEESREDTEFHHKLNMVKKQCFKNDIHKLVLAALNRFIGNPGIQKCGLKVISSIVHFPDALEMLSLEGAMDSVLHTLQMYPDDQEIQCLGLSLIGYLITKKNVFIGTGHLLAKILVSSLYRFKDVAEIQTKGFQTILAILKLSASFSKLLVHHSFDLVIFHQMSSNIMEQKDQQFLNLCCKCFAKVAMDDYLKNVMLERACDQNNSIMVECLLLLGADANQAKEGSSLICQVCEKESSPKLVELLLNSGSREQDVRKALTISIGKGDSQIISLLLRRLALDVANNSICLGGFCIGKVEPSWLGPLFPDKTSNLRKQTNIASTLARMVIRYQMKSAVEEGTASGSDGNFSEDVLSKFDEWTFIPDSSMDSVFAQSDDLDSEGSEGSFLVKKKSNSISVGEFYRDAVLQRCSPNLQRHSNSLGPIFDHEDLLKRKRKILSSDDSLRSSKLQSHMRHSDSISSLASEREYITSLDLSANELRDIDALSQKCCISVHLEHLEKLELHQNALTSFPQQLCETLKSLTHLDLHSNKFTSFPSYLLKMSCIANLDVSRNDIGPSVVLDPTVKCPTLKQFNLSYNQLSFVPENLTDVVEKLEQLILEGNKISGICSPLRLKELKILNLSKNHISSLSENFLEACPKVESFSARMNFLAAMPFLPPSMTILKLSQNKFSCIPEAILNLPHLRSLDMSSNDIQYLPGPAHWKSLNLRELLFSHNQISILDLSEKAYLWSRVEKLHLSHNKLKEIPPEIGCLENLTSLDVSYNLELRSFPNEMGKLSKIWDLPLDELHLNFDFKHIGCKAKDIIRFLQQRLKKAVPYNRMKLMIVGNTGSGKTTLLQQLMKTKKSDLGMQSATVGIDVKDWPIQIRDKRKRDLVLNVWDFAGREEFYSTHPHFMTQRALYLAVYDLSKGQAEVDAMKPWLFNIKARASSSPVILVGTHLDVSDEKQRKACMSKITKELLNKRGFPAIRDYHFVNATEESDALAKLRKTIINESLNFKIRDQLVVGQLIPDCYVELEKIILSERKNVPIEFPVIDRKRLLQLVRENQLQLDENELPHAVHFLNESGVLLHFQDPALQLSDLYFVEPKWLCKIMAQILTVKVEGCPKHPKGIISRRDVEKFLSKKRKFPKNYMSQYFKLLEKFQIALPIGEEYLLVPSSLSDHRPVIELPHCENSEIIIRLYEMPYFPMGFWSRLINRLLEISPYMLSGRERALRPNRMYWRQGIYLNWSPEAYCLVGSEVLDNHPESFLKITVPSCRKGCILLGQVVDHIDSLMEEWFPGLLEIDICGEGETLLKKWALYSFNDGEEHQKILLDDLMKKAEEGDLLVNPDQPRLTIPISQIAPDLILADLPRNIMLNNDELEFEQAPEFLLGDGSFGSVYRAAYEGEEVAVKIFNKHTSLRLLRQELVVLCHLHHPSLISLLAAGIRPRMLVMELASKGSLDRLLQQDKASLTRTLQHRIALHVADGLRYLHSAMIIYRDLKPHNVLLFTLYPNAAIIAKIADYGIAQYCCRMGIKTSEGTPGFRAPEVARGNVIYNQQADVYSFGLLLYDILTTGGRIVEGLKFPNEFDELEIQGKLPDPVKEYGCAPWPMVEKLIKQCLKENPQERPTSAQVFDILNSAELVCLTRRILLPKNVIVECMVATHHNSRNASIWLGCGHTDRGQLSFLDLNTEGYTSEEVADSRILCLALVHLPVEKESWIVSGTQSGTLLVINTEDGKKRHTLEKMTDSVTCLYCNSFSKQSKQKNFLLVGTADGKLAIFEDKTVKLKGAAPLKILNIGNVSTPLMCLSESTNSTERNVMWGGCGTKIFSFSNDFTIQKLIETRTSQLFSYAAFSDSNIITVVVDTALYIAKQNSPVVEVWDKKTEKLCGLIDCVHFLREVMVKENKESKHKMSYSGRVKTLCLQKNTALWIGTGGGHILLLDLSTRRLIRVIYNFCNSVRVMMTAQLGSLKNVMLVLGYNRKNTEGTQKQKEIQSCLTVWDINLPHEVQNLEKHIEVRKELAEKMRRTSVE

Row | Structure (SMILES) | IC50 [µM]
1 | COCC1CCOc2nn(C3CCOCC3F)c(C)c2Nc2ncc(Cl)c(n2)N1 (single isomer, unassigned) [E357, 14-Chloro-5-(3-fluorooxan-4-yl)-11-(methoxymethyl)-4-methyl-8-oxa-2,5,6,12,16,17-hexaazatricyclo [11.3. 1.0^3,7]heptadeca-1(16),3,6,13(17),14-pentaene] | ≤ 0.1
2 | COCC1CCOc2nn(C3CCOCC3F)c(C)c2Nc2ncc(Cl)c(n2)N1 (single isomer, unassigned) [E358, 14-Chloro-5-(3-fluorooxan-4-yl)-11-(methoxymethyl)-4-methyl-8-oxa-2,5,6,12,16,17-hexaazatricyclo [11.3. 1.0^3,7]heptadeca-1(16),3,6,13(17),14-pentaene] | ≤ 0.1
3 | Cc1c2c(nn1C1CCOCC1(C)C)OCC[C@@H](C)Nc1nc(ncc1Cl)N2 (single isomer, unassigned) [E423] | ≤ 0.1
4 | C[C@@H]1CCOc2nn(C3CCN(C4COC4)CC3(F)F)c(Cl)c2Nc2ncc(Cl)c(n2)N1 (single isomer, unassigned) [E445] | ≤ 0.1
5 | COc1cnc2nc1N[C@H](C)CCOc1nn(C3CCOCC3)c(C)c1N2 [E294, (11R)-14-Methoxy-4,11-dimethyl-5-(oxan-4-yl)-8-oxa-2,5,6,12,16, 17-hexaazatricyclo[11.3.1.0^3,7]heptadeca-1(16),3,6,13(17),14-pentaene] | ≤ 10
6 | Cc1c2c(nn1C1CCOCC1)OCC[C@@H](C)Nc1nc(ncc1F)N2 [E295, (11R)-14-Fluoro-4,11-dimethyl-5-(oxan-4-yl)-8-oxa-2,5,6,12,16,17-hexaazatricyclo[11.3.1.0^3,7]heptadeca-1(16),3,6,13(17),14-pentaene] | ≤ 0.1
7 | Cc1cnc2nc1N[C@H](C)CCOc1nn(C3CCOCC3)c(C)c1N2 [E296, (11R)-14-Methyl-4,11-dimethyl-5-(oxan-4-yl)-8-oxa-2,5,6,12,16,17-hexaazatricyclo[11.3.1.0^3,7]heptadeca-1(16),3,6,13(17),14-pentaene] | ≤ 10
8 | Cc1c2c(nn1C(C)(C)C#N)OCC[C@@H](C(C)C)Nc1nc(ncc1Cl)N2 [E323, 2-[(11S)-14-Chloro-4-methyl-11-(propan-2-yl)-8-oxa-2,5,6,12, 16,17-hexaazatricyclo[11.3.1.0^3,7]heptadeca-1(16),3,6,13(17),14-pentaen-5-yl]-2-methylpropanenitrile] | ≤ 10
9 | CCN1CCCOc2nn(C3CCOCC3)c(C)c2Nc2ncc(Cl)c1n2 [E360, 14-Chloro-12-ethyl-4-methyl-5-(oxan-4-yl)-8-oxa-2,5,6,12,16,17-hexaazatricyclo[11.3.1.0^3,7]heptadeca-1(16),3,6,13(17),14-pentaene] | ≤ 10
10 | Cc1c2c(nn1C1CN(C3CCOCC3)C1)OC[C@@H](F)[C@@H](C)Nc1nc(ncc1Cl)N2 [E388, (10S, 11R)-14-Chloro-10-fluoro-4,11-dimethyl-5-[1-(oxan-4-yl)azetidin-3-yl]-8-oxa-2,5,6,12,16,17-hexaazatricyclo [11.3.1.0^3,7]heptadeca-1(16),3,6,13(17),14-pentaene] | ≤ 0.1
11 | COC(C)c1c2c(nn1C1CCOCC1)OCC[C@@H](C)Nc1nc(ncc1Cl)N2 (stereo partly drawn) [E409, (11R)-14-Chloro-4-(1-methoxyethyl)-11-methyl-5-(oxan-4-yl)-8-oxa-2,5,6,12,16,17-hexaazatricyclo[11.3.1.0^3,7]heptadeca-1(17),3,6,13,15-pentaene] | ≤ 10
12 | Cc1c2c(nn1C1(C(F)(F)F)CCOCC1)OCC[C@@H](C)Nc1nc(ncc1Cl)N2 [E419, (11R)-14-Chloro-4,11-dimethyl-5-[4-(trifluoromethyl)oxan-4-yl]-8-oxa-2,5,6,12,16,17-hexaazatricyclo[11.3.1.0^3,7]heptadeca-1(16),3,6,13(17),14-pentaene] | ≤ 0.1
13 | N#Cc1cnc2nc1NCCCOc1n[nH]c(Cl)c1N2 [E426, 4-Chloro-8-oxa-2,5,6,12,16,17-hexaazatricyclo[11.3.1.0^3,7]heptadeca-1(16),3,6,13(17),14-pentaene-14-carbonitrile] | ≤ 10

Other lines, results leading:

Row | IC50 [µM] | Structure (SMILES)
14 | ≤ 10 | Cc1c2c(nn1C1CCC(N3CCOCC3)C1)OCCCNc1nc(ncc1Cl)N2 (single isomer, unassigned) [E370, 14-Chloro-4-methyl-5-[3-(morpholin-4-yl)cyclopentyl]-8-oxa-2,5,6,12,16,17-hexaazatricyclo[11.3.1.0^3,7] heptadeca-1(16),3,6,13(17),14-pentaene]
15 | ≤ 0.1 | Cc1c2c(nn1C1CN(C3COC3)CCC1F)OCC[C@@H](C)Nc1nc(ncc1Cl)N2 (single isomer, unassigned) [E404]
16 | ≤ 0.1 | Cc1c2c(nn1C1CCN(C3COC3)CC1(F)F)OCCCNc1nc(ncc1Cl)N2 (single isomer, unassigned) [E405, 14-Chloro-5-[3,3-difluoro-1-(oxetan-3-yl)piperidin-4-yl]-4-methyl-8-oxa-2,5,6,12,16,17-hexaazatricyclo[11.3.1.0^3,7]heptadeca-1(16),3,6,13(17),14-pentaene]
17 | ≤ 0.1 | Cc1c2c(nn1C1CCOCC1(F)F)OCCCNc1nc(ncc1Cl)N2 (single isomer, unassigned) [E414]
18 | ≤ 10 | Cc1c2c(nn1C1CCOCC1)OCC[C@H](C)Nc1nc(ncc1Cl)N2 [E7, (11S)-14-Chloro-4,11-dimethyl-5-(oxan-4-yl)-8-oxa-2,5,6,12,16,17-hexaazatricyclo [11.3.1.0^3,7]heptadeca-1(16),3,6,13(17),14-pentaene]
19 | ≤ 10 | Clc1cnc2nc1NCCCOc1nn(C3CCCOC3)cc1N2 (stereo not shown) [E9, 14-Chloro-5-(oxan-3-yl)-8-oxa-2,5,6,12,16,17-hexaazatricyclo[11.3.1.0^3,7]heptadeca-1(16),3,6,13(17),14-pentaene]
20 | ≤ 10 | Cc1c2c(nn1C1CCOCC1)OCCNc1nc(ncc1Cl)N2 [E138, 13-Chloro-4-methyl-5-(oxan-4-yl)-8-oxa-2,5,6,11,15,16-hexaaza tricyclo[10.3.1.0^3,7]hexadeca-1(15),3,6,12(16),13-pentaene]
21 | ≤ 10 | Clc1cnc2nc1NCCCOc1nn(C3CCOCC3)c(C3CC3)c1N2 [E147, 14-Chloro-4-cyclopropyl-5-(oxan-4-yl)-8-oxa-2,5,6,12,16,17-hexaazatricyclo[11.3.1.0^3,7]heptadeca-1(16),3,6,13(17),14-pentaene]
22 | ≤ 10 | Cc1c2c(nn1C(C)(C)C(N)=O)OCCCNc1nc(ncc1Cl)N2 [E190, 2-{14-Chloro-4-methyl-8-oxa-2,5,6,12,16,17-hexaazatricyclo [11.3.1.0^3,7]heptadeca-1(16),3,6,13(17),14-pentaen-5-yl}-2-methylpropanamide]
23 | ≤ 10 | Cc1c2c(nn1CC(C)(C)O)OCCCNc1nc(ncc1Cl)N2 [E263, 1-{14-Chloro-4-methyl-8-oxa-2,5,6,12,16,17-hexaazatricyclo [11.3.1.0^3,7]heptadeca-1(16),3,6,13(17),14-pentaen-5-yl}-2-methylpropan-2-ol]
24 | ≤ 0.1 | Cc1c2c(nn1C1CCOCC1)OCC[C@@H](C(C)C)Nc1nc(ncc1Cl)N2 [E298, (11S)-14-Chloro-4-methyl-5-(oxan-4-yl)-11-(propan-2-yl)-8-oxa-2,5,6,12,16,17-hexaazatricyclo[11.3.1.0^3,7]heptadeca-1(16),3,6,13(17),14-pentaene]
25 | ≤ 10 | Cc1c2c(nn1C1CCOCC1)OCCC(C)(C)Nc1nc(ncc1Cl)N2 [E299, 14-Chloro-4,11,11-trimethyl-5-(oxan-4-yl)-8-oxa-2,5,6,12,16,17-hexaazatricyclo[11.3.1.0^3,7]heptadeca-1(16),3,6,13(17),14-pentaene]
26 | ≤ 0.1 | Cc1c2c(nn1C1CN(C3CCCOC3)C1)OC[C@@H](F)[C@@H](C)Nc1nc(ncc1Cl)N2 (stereo partly drawn) [E390, (10S, 11R)-14-Chloro-10-fluoro-4,11-dimethyl-5-[1-(oxan-3-yl)azetidin-3-yl]-8-oxa-2,5,6,12,16,17-hexaazatricyclo [11.3.1.0^3,7]heptadeca-1(16)53,6,13(17),14-pentaene]
27 | ≤ 0.1 | Cc1c2c(nn1C1(C(F)(F)F)CCOCC1)OCCCNc1nc(ncc1Cl)N2 [E418, 14-Chloro-4-methyl-5-[4-(trifluoromethyl)oxan-4-yl]-8-oxa-2,5,6,12,16,17-hexaazatricyclo[11.3.1.0^3,7]heptadeca-1(16),3,6,13(17),14-pentaene]
28 | ≤ 0.1 | FC(F)(F)c1c2c(nn1C1CCOCC1)OCCCNc1nc(ncc1Cl)N2 [E424, 14-Chloro-5-(oxan-4-yl)-4-(trifluoromethyl)-8-oxa-2,5,6,12,16,17-hexaazatricyclo[11.3.1.0^3,7]heptadeca-1(16),3,6,13(17),14-pentaene]

Reference: US20200392158A1, “INHIBITORS OF LEUCINE RICH REPEAT KINASE 2” (GLAXOSMITHKLINE INTELLECTUAL PROPERTY DEVELOPMENT LIMITED, priority 2017, published 2020)
